Measured values taken from article PMC5587574, “Carbonyl reductase 1 catalyzes 20β-reduction of glucocorticoids, modulating receptor activation and metabolic complications of obesity” (Scientific Reports, 2017).

Molecular target: T1, Carbonyl reductase 1 (CBR1) (Homo sapiens, UniProt P16152)
T1 construct: recombinant human CBR1
T1 sequence (P16152 2-277): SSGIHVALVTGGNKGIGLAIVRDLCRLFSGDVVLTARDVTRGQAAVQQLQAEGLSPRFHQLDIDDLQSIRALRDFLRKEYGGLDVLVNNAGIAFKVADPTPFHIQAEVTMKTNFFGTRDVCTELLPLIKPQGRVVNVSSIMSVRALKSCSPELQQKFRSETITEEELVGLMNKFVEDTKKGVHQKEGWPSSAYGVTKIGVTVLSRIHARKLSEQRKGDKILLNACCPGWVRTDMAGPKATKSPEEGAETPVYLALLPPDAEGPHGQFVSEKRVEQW
Experiment: conversion by recombinant enzyme, LC-MS/MS
Assay type: biochemical

**Q.** Which “conversion by recombinant enzyme, LC-MS/MS” value does the source give for `C[C@]12CCC(=O)C=C1CC[C@@H]1[C@@H]2[C@@H](O)C[C@@]2(C)[C@H]1CC[C@]2(O)C(=O)CO` [F, cortisol] here?
**A.** The value was 1.2 ± 0.4 ng/mg CBR1 protein per minute.
